From patent US8148373B2, “Compounds” (AstraZeneca AB, priority 2008, dated 2012)

Assays:
[1] = biological target: T1, human muscarinic acetylcholine M3 receptor (M3-ACh) (Homo sapiens, UniProt P20309); experiment: Muscarinic 3 Receptor Binding Assay, % inhibition specific binding at 1 μM; conditions: 1 μM compound, % inhibition specific [3H]-NMS binding
T1 construct: expressed in transfected cells; host or cells: CHO-K1 (Chinese Hamster Ovary) cell membranes
Method in brief: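 Competition binding of 0.1 nM [3H]NMS to membranes from CHO-K1 cells expressing human M3, SPA format, with compound at 1 μM in 20 mM HEPES pH 7.4, 5 mM MgCl2, 1% DMSO. Incubated 16 h at room temperature; non-specific binding defined by 1 μM atropine; value is % inhibition of specific binding.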

[2] = biological target: T2, Adrenergic β2 (H292 cells) (Homo sapiens, UniProt P07550); experiment: Adrenergic β2 Mediated cAMP Production, single concentration 1 μM; assay type: cell-based; conditions: NCI-H292, 1 μM compound, percentage of the maximum response generated by 1E-07M formoterol, read-out: β2 (% effect at 1 μM)
T2 construct: endogenous in cells; host or cells: H292 cells
Method in brief: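 H292 cells were plated overnight, pre-treated with 300 μM rolipram for 10 min, then exposed to compound at 1 μM final (1% DMSO) for 60 min at room temperature. cAMP in the lysates was measured by AlphaScreen against a standard curve and expressed as % of the maximal response to 1E-07M formoterol.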

T2 sequence (P07550 whole entry): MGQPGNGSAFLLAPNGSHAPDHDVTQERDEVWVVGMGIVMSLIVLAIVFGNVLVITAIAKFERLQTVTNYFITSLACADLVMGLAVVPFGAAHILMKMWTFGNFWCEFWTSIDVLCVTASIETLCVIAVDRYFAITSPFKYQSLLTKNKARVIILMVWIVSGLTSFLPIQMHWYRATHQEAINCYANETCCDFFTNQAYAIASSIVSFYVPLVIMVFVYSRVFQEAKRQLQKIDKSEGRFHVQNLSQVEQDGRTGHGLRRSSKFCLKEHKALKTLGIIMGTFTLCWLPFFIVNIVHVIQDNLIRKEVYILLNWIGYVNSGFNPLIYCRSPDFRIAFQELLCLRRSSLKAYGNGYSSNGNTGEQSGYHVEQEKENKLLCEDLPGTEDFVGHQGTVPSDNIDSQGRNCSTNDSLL
T1 sequence (P20309 whole entry): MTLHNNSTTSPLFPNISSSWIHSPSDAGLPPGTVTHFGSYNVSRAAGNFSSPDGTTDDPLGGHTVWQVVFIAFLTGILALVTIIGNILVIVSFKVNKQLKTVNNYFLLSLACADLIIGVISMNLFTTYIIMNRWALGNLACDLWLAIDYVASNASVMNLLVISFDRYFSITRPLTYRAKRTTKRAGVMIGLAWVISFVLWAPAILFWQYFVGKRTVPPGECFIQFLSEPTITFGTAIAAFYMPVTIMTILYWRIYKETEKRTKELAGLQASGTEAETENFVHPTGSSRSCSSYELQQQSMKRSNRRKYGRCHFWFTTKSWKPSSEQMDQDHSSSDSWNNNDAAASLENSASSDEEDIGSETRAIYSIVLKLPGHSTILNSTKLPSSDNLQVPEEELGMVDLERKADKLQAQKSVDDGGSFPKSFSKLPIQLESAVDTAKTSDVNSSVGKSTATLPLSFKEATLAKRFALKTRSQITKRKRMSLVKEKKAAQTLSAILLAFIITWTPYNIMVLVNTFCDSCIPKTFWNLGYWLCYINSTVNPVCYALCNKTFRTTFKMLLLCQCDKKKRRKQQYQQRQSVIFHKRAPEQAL

| inhibition at 1 µM [1] [%] | activation at 1 µM [2] [%] | SMILES |
| --- | --- | --- |
| 30 | 73 | Cc1cc(C(=O)N2CCOC3(CCN(CCOc4ccc(CNC[C@H](O)c5ccc(O)c6[nH]c(=O)sc56)cc4)CC3)C2)oc1C [Example 236, (R)-7-(2-(4-(2-(4-(4,5-dimethylfuran-2-carbonyl)-1-oxa-4,9-diazaspiro[5.5]undecan-9-yl)ethoxy)benzylamino)-1-hydroxyethyl)-4-hydroxy-benzo[d]thiazol-2(3H)-one] |
| 38 | 76 | Cc1nc2cc(C(=O)N3CCOC4(CCN(CCOc5ccc(CNC[C@H](O)c6ccc(O)c7[nH]c(=O)sc67)cc5)CC4)C3)ccc2s1 [Example 256, (R)-4-hydroxy-7-(1-hydroxy-2-(4-(2-(4-(2-methylbenzo[d]thiazole-5-carbonyl)-1-oxa-4,9-diazaspiro[5.5]undecan-9-yl)ethoxy)benzylamino)ethyl) benzo[d]thiazol-2(3H)-one] |
| 91 | 77 | O=C(c1ccc2occc2c1)N1CCOC2(CCN(CCOc3ccc(CNC[C@H](O)c4ccc(O)c5[nH]c(=O)sc45)cc3)CC2)C1 [Example 250, (R)-7-(2-(4-(2-(4-(benzofuran-5-carbonyl)-1-oxa-4,9-diazaspiro[5.5]undecan-9-yl)ethoxy)benzylamino)-1-hydroxyethyl)-4-hydroxybenzo[d]thiazol-2(3H)-one] |
| 36 | 56 | CC(C)(C)c1nc(C(=O)N2CCOC3(CCN(CCOc4ccc(CNC[C@H](O)c5ccc(O)c6[nH]c(=O)sc56)cc4)CC3)C2)cs1 [Example 257, (R)-7-(2-(4-(2-(4-(2-tert-butylthiazole-4-carbonyl)-1-oxa-4,9-diazaspiro[5.5]undecan-9-yl)ethoxy)benzylamino)-1-hydroxyethyl)-4-hydroxy-benzo[d]thiazol-2(3H)-one] |
| 29 | 97 | O=C(c1cc2ccccc2s1)N1CCOC2(CCN(CCOc3ccc(CNC[C@H](O)c4ccc(O)c5[nH]c(=O)sc45)cc3)CC2)C1 [Example 235, (R)-7-(2-(4-(2-(4-(benzo[b]thiophene-2-carbonyl)-1-oxa-4,9-diazaspiro[5.5]undecan-9-yl)ethoxy)benzylamino)-1-hydroxyethyl)-4-hydroxy-benzo[d]thiazol-2(3H)-one] |
| 51 | 82 | O=C(Cc1ccsc1)N1CCOC2(CCN(CCOc3ccc(CNC[C@H](O)c4ccc(O)c5[nH]c(=O)sc45)cc3)CC2)C1 [Example 233, (R)-4-hydroxy-7-(1-hydroxy-2-(4-(2-(4-(2-(thiophen-3-yl)acetyl)-1-oxa-4,9-diazaspiro[5.5]undecan-9-yl)ethoxy)benzylamino)ethyl) benzo[d]thiazol-2(3H)-one] |
| 38 | 72 | Cc1sccc1C(=O)N1CCOC2(CCN(CCOc3ccc(CNC[C@H](O)c4ccc(O)c5[nH]c(=O)sc45)cc3)CC2)C1 [Example 246, (R)-4-hydroxy-7-(1-hydroxy-2-(4-(2-(4-(2-methylthiophene-3-carbonyl)-1-oxa-4,9-diazaspiro[5.5]undecan-9-yl)ethoxy)benzylamino)ethyl) benzo[d]thiazol-2(3H)-one] |

Second part, the compound before the results:

| SMILES | inhibition at 1 µM [1] [%] | activation at 1 µM [2] [%] |
| --- | --- | --- |
| O=C(c1cc2cc(Cl)ccc2o1)N1CCOC2(CCN(Cc3cc(F)cc(CCNC[C@H](O)c4ccc(O)c5[nH]c(=O)sc45)c3)CC2)C1 [Example 182, (R)-7-(2-(3-((4-(5-chlorobenzofuran-2-carbonyl)-1-oxa-4,9-diazaspiro[5.5]undecan-9-yl)methyl)-5-fluorophenethylamino)-1-hydroxyethyl)-4-hydroxybenzo[d]thiazol-2(3H)-one] | 16 | 88 |
| O=C(Cc1ccccc1)N1CCOC2(CCN(CCCCCCCCCNC[C@H](O)c3ccc(O)c4[nH]c(=O)sc34)CC2)C1 [Example 186, (R)-4-hydroxy-7-(1-hydroxy-2-(9-(4-(2-phenylacetyl)-1-oxa-4,9-diazaspiro[5.5]undecan-9-yl)nonylamino)ethyl)benzo[d]thiazol-2(3H)-one] | 95 | 86 |
| O=C(c1ccccc1)N1CCOC2(CCN(CCOc3ccc(CNC[C@H](O)c4ccc(O)c5[nH]c(=O)sc45)cc3)CC2)C1 [Example 223, (R)-7-(2-(4-(2-(4-benzoyl-1-oxa-4,9-diazaspiro[5.5]undecan-9-yl)ethoxy)benzylamino)-1-hydroxyethyl)-4-hydroxybenzo[d]thiazol-2(3H)-one] | 56 | 87 |
| O=C(COCCc1ccccc1)N1CCOC2(CCN(Cc3cc(F)cc(CCNC[C@H](O)c4ccc(O)c5[nH]c(=O)sc45)c3)CC2)C1 [Example 174, (R)-7-(2-(3-fluoro-5-((4-(2-phenethoxyacetyl)-1-oxa-4,9-diazaspiro[5.5]undecan-9-yl)methyl)phenethylamino)-1-hydroxyethyl)-4-hydroxybenzo[d]thiazol-2(3H)-one] | 41 | 89 |
| O=C(c1ccnn1-c1ccccc1)N1CCOC2(CCN(Cc3cc(F)cc(CCNC[C@H](O)c4ccc(O)c5[nH]c(=O)sc45)c3)CC2)C1 [Example 160, (R)-7-(2-(3-fluoro-5-((4-(1-phenyl-1H-pyrazole-5-carbonyl)-1-oxa-4,9-diazaspiro[5.5]undecan-9-yl)methyl)phenethylamino)-1-hydroxyethyl)-4-hydroxybenzo[d]thiazol-2(3H)-one] | 5 | 91 |
| Cc1cccc(C(=O)N2CCOC3(CCN(Cc4cc(F)cc(CCNC[C@H](O)c5ccc(O)c6[nH]c(=O)sc56)c4)CC3)C2)c1 [Example 122, (R)-7-(2-(3-fluoro-5-((4-(3-methylbenzoyl)-1-oxa-4,9-diazaspiro[5.5]undecan-9-yl)methyl)phenethylamino)-1-hydroxyethyl)-4-hydroxybenzo[d]thiazol-2(3H)-one] | 86 | 82 |
| O=C(c1cnc(-c2ccccc2)[nH]1)N1CCOC2(CCN(Cc3cc(F)cc(CCNC[C@H](O)c4ccc(O)c5[nH]c(=O)sc45)c3)CC2)C1 [Example 175, (R)-7-(2-(3-fluoro-5-((4-(2-phenyl-1H-imidazole-5-carbonyl)-1-oxa-4,9-diazaspiro[5.5]undecan-9-yl)methyl)phenethylamino)-1-hydroxyethyl)-4-hydroxybenzo[d]thiazol-2(3H)-one] | 3 | 94 |
| Cc1cc(C(=O)N2CCOC3(CCN(CCCCCCCCCNC[C@H](O)c4ccc(O)c5[nH]c(=O)sc45)CC3)C2)sc1C [Example 222, (R)-7-(2-(9-(4-(4,5-dimethylthiophene-2-carbonyl)-1-oxa-4,9-diazaspiro[5.5]undecan-9-yl)nonylamino)-1-hydroxyethyl)-4-hydroxybenzo[d]thiazol-2(3H)-one] | 91 | 87 |
| O=C(c1ccc(Cl)s1)N1CCOC2(CCN(CCOc3ccc(CNC[C@H](O)c4ccc(O)c5[nH]c(=O)sc45)cc3)CC2)C1 [Example 231, (R)-7-(2-(4-(2-(4-(5-chlorothiophene-2-carbonyl)-1-oxa-4,9-diazaspiro[5.5]undecan-9-yl)ethoxy)benzylamino)-1-hydroxyethyl)-4-hydroxybenzo[d] thiazol-2(3H)-one] | 91 | 53 |
| Cc1nc2cc(C(=O)N3CCOC4(CCN(CCCCCCCCCNC[C@H](O)c5ccc(O)c6[nH]c(=O)sc56)CC4)C3)ccc2s1 [Example 215, (R)-4-hydroxy-7-(1-hydroxy-2-(9-(4-(2-methylbenzo[d]thiazole-5-carbonyl)-1-oxa-4,9-diazaspiro[5.5]undecan-9-yl)nonylamino)ethyl)benzo[d]thiazol-2(3H)-one] | 94 | 89 |
| O=C(c1cc(-c2ccccc2)n[nH]1)N1CCOC2(CCN(Cc3cc(F)cc(CCNC[C@H](O)c4ccc(O)c5[nH]c(=O)sc45)c3)CC2)C1 [Example 155, (R)-7-(2-(3-fluoro-5-((4-(3-phenyl-1H-pyrazole-5-carbonyl)-1-oxa-4,9-diazaspiro[5.5]undecan-9-yl)methyl)phenethylamino)-1-hydroxyethyl)-4-hydroxybenzo[d]thiazol-2(3H)-one] | 4 | 101 |
| O=C(CCCc1cccs1)N1CCOC2(CCN(CCOc3ccc(CNC[C@H](O)c4ccc(O)c5[nH]c(=O)sc45)cc3)CC2)C1 [Example 224, (R)-4-hydroxy-7-(1-hydroxy-2-(4-(2-(4-(4-(thiophen-2-yl)butanoyl)-1-oxa-4,9-diazaspiro[5.5]undecan-9-yl)ethoxy)benzylamino)ethyl) benzo[d]thiazol-2(3H)-one] | 70 | 89 |
| Cn1cccc1C(=O)N1CCOC2(CCN(CCOc3ccc(CNC[C@H](O)c4ccc(O)c5[nH]c(=O)sc45)cc3)CC2)C1 [Example 225, (R)-4-hydroxy-7-(1-hydroxy-2-(4-(2-(4-(1-methyl-1H-pyrrole-2-carbonyl)-1-oxa-4,9-diazaspiro[5.5]undecan-9-yl)ethoxy)benzylamino)ethyl) benzo[d]thiazol-2(3H)-one] | 60 | 74 |
| O=C(COc1ccccc1)N1CCOC2(CCN(CCCCCCCCCNC[C@H](O)c3ccc(O)c4[nH]c(=O)sc34)CC2)C1 [Example 199, (R)-4-hydroxy-7-(1-hydroxy-2-(9-(4-(2-phenoxyacetyl)-1-oxa-4,9-diazaspiro[5.5]undecan-9-yl)nonylamino)ethyl)benzo[d]thiazol-2(3H)-one] | 91 | 91 |
